Source: patent US5500430A, “Amidic derivatives of glutamic, aspartic and 2-amino adipic acids, a process for preparing same, and anti-gastrin composition containing the derivatives” (Rotta Research Laboratorium S.p.A., priority 1990, dated 1996)
Read-outs that look alike come from different tables or passages of the source.

Tests used:
[1] = system: gastric acid secretion induced by pentagastrin; assay: Antisecretive activity in anaesthetised rats (pentagastrin-stimulated gastric acid secretion); format: in vivo; conditions: pentagastrin 30 mcg/Kg/h; for ED50: Rattus norvegicus, iv, anaesthetised male rats, I.V. bolus, IN with bound, read-out: Antagonistic activity (ID50) towards gastric acid secretion induced by pentagastrin; for Antigastrin activity (in words): anaesthetised rats
Method: Antisecretive activity in anaesthetised rats
Antisecretive activity in rats was determined with the use of male animals each weighing about 200 g, anaesthetised with urethane. Gastric secretion was stimulated with pentagastrin. The method of K. S. Lai (Gut 5, (1964), 327-341) was used, slightly modified.
After tracheotomy, cannulae were inserted in the oesophagus and the duodenum. A tepid solution. (37° C.) of 0.25 mM NaOH was perfused and passed through the stomach by means of a peristaltic pump at a constant flow rate of 1 ml/minute. After stabilisation for 20 minutes, the stimulating agent, dissolved in a physiological solution, was perfused for 120 minutes at a dose of 30 mcg/Kg/h in a volume of 0.95 ml/hour. After perfusion for 60 minutes (the basal stimulation), the product under test was administered as an intravenous bolus (I.V.) and the perfusion of the stimulant continued for a further 60 minutes. Acid secretion was recorded continuously as a function of time.
The activity of the product was evaluated as the percentage reduction in the secreted acidity after the administration of the product compared with the base acidity measured during the first 60 minutes of collection during which only the pentagastrin was present.
Different doses of the antagonist compounds tested were administered so that an ID50, that is, the dose (in mg/Kg I.V.) capable of inhibiting the effect of pentagastrin by 50%, could be calculated.
The results thus obtained are illustrated in the following table (Table 1) in which the activities of the compounds are expressed as the ID50s under the stimulus of 30 mcg/Kg/h of pentagastrin.

[2] = biological target: T1, gastrin receptor sites on the cerebral cortex membranes of mice (Mus musculus, UniProt P56481); assay: Inhibition of the binding of pentagastrin to mouse cortical membranes
T1 construct: Mouse cortical tissue; from tissue; host or cells: mouse cerebral cortex membranes
T1 sequence (P56481 1-453): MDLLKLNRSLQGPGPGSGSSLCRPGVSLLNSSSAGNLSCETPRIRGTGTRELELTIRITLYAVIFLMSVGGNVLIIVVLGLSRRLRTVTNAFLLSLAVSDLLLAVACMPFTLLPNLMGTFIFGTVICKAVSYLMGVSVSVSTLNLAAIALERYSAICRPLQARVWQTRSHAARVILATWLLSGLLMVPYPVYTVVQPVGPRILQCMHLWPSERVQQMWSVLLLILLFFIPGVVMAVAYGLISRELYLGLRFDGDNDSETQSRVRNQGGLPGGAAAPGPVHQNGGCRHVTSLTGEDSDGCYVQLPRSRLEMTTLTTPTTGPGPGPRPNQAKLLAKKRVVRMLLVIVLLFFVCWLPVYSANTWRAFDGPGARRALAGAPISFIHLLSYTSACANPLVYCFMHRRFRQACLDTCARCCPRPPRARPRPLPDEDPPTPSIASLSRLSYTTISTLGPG
Text: Tests on binding to cerebral cortex membranes of mice
The capacities of some of the compounds of the invention to inhibit the binding of pentagastrin to the gastrin receptor sites on the cerebral cortex membranes of mice was to be evaluated. Pentagastrin tritiate[beta-alanyl-3-3H(N)] was used as the ligand.
Mouse cortical tissue Was homogenised cold in 20 volumes of tris buffer (pH 7.7). After washing and centrifuging, the final pellet was resuspended in 20 volumes of binding buffer containing, inter alia, TRIS, BSA and Bacitracin. 0.4 ml of the membrane thus obtained were then incubated with a radioactive tracer and the compounds under test for 40 minutes at 37° C.
After the supernatant liquid had been removed by centrifuging, the radioactivity associated with the pellet was determined with a liquid scintillator (a beta-counter). The specific binding was the difference between the binding in the absence and in the presence of 10^-5M pentagastrin.

[3] = system: guinea-pig gall bladder contracted with CCK-8; assay: Anticholecystokinin (anti-CCK) activity on guinea-pig gall bladders stimulated by CCK-8 in vitro; conditions: for Anti-CCK activity IC50: CCK-8 concentration 10 ng/ml, Krebs, 32° C.; for Antagonism of contracturant activity of CCK-8 relative to lorglumide (in words): vs lorglumide
Method: Anticholecystokinin (anti-cc, K) activity
In order to confirm the hypothesis that the molecular conformations of the compounds of the invention are suitable to provide them with antagonistic activity towards CCK as well as towards gastrin, the anticontracturant activities of some of the compounds of the invention were tested on guinea-pig gall bladders stimulated by CCK-8 in vitro.
A longitudinal strip of guinea-pig gall bladder was placed in a bath for isolated organs in the presence of Krebs at a temperature of 32° C. and oxygenated continuously with an oxygen-CO2 mixture (95-5 V/V).
The isometric contractions were detected by means of a force transducer and recorded.
The gall bladder was contracted with the use of a concentration of 10 ng/ml of CCK-8; the antagonistic activities of the compounds towards the contracturant effect of the CCK was determined with the use of different concentrations, thus determining the IC50 values, that is, the concentration of the compound in mcg/ml which can antagonise the contracturant effect of CCK by 50%.

[4] = pentagastrin tritiate ligand, 40 minutes at 37° C., read-out: IC50, inhibition of the binding of pentagastrin

| SMILES | ED50 [1] | IC50 [2, 4] | further results |
| --- | --- | --- | --- |
| O=C(O)CC[C@@H](NC(=O)c1cccc(Cl)c1)C(=O)N1CCC2CCCCC2C1 (stereo partly shown) [Compound C29] | 35 mg/kg | 0.8 µM | Anti-CCK activity IC50 [3]: 234 µg/mL |
| CC(C)c1ccc(C(=O)N[C@H](CCC(=O)O)C(=O)N2CCC3(CCCC3)CC2)cc1 [Compound C18] | 28 mg/kg | – | – |
| CCc1cccc(C(=O)N[C@H](CCC(=O)O)C(=O)N2CCC3(CCCC3)CC2)c1 [Compound C12] | 38 mg/kg | – | – |
| O=C(O)CC[C@@H](NC(=O)c1cccc(Cl)c1Cl)C(=O)N1CCC2(CCCC2)CC1 [Compound C9] | 40 mg/kg | – | – |
| CCCN(CCC)C(=O)C(CCC(=O)O)NC(=O)c1ccccc1 (stereo not shown) [Proglumide, proglumide, reference compound] | 500 mg/kg | – | – |
| O=C(O)CC[C@@H](NC(=O)c1cccc(Cl)c1)C(=O)N1CCC2(CCCC2)C1 [Compound C3] | 75 mg/kg | – | Anti-CCK activity IC50 [3]: 43 µg/mL |
| O=C(O)CC[C@@H](NC(=O)c1cccc(C(F)(F)F)c1)C(=O)N1CCC2(CCCC2)CC1 [Compound C17] | 55 mg/kg | – | – |
| O=C(O)CC[C@@H](NC(=O)c1cccc(Cl)c1)C(=O)NC1CCC2(CCCCC2)CC1 [Compound C22] | 55 mg/kg | – | – |
| O=C(O)CC[C@@H](NC(=O)c1cccc([N+](=O)[O-])c1)C(=O)N1CCC2(CCCC2)CC1 [Compound C14] | 68 mg/kg | 8.1 µM | – |
| O=C(O)CC[C@@H](NC(=O)c1cccc(Cl)c1)C(=O)N1CCC2(CCCCC2)CC1 [Compound C2] | 33 mg/kg | 0.14 µM | Anti-CCK activity IC50 [3]: 4.9 µg/mL |
| N#Cc1cccc(C(=O)N[C@H](CCC(=O)O)C(=O)N2CCC3(CCCC3)CC2)c1 [Compound C16] | 66 mg/kg | – | – |
| O=C(O)CC[C@@H](NC(=O)c1cc2ccccc2[nH]1)C(=O)N1CCC2(CCCC2)CC1 [Compound C26] | > 75 mg/kg | – | – |
| O=C(O)CC[C@@H](NC(=O)c1ccc2ccccc2c1)C(=O)N1CCC2(CCCC2)CC1 [Compound C10] | 45 mg/kg | 0.1 µM | Anti-CCK activity IC50 [3]: 1.0 µg/mL; Antagonism of contracturant activity of CCK-8 relative to lorglumide (in words) [3]: at concentrations no greater than those shown by lorglumide |
| CCCCCN(CCCCC)C(=O)C(CCC(=O)O)NC(=O)c1ccc(Cl)c(Cl)c1 (stereo not shown) [Lorglumide, lorglumide, reference compound] | > 100 mg/kg | – | Antigastrin activity (in words) [1]: completely inactive up to a dose of 100 mg/Kg; Anti-CCK activity IC50 [3]: 0.06 µg/mL |
| O=C(O)CC(NC(=O)c1cccc(Cl)c1)C(=O)N1CCC2(CCCC2)CC1 (stereo not shown) [Compound D4] | 70 mg/kg | 6.8 µM | Anti-CCK activity IC50 [3]: 36 µg/mL |
| Cc1cc(C)cc(C(=O)N[C@H](CCC(=O)O)C(=O)N2CCC3(CCCC3)CC2)c1 [Compound C13] | 33 mg/kg | – | – |
| O=C(O)CC[C@@H](NC(=O)c1cccc(Cl)c1)C(=O)NCCC12CC3CC(CC(C3)C1)C2 [Compound C30] | 25 mg/kg | 0.03 µM | Antigastrin activity (in words) [1]: particularly favourable; Anti-CCK activity IC50 [3]: 59 µg/mL |
| COc1cccc(C(=O)N[C@H](CCC(=O)O)C(=O)N2CCC3(CCCC3)CC2)c1 [Compound C15] | 46 mg/kg | – | – |
| Cc1cccc(C(=O)N[C@H](CCC(=O)O)C(=O)N2CCC3(CCCC3)CC2)c1 [Compound C11] | 38 mg/kg | – | – |

| SMILES | ED50 [1] | IC50 [2, 4] | further results |
| --- | --- | --- | --- |
| O=C(O)CCC(NC(=O)c1cccc(Cl)c1)C(=O)N1CCC2(CC1)OCCS2 (stereo not shown) [Compound D3] | 67 mg/kg | – | – |
| O=C(O)CC[C@@H](NC(=O)c1cc(Cl)cc(Cl)c1)C(=O)N1CCC2(CCCCC2)C1 [Compound C6] | 45 mg/kg | 0.32 µM | – |
| O=C(O)CCC(NC(=O)c1cccc(Cl)c1)C(=O)NC1CCC2CCCCC2C1 (stereo not shown) [Compound D6] | 60 mg/kg | – | – |
| O=C(O)CCC(NC(=O)c1cc(Cl)cc(Cl)c1)C(=O)NC1CCC2CCCCC2C1 (stereo not shown) [Compound D7] | 48 mg/kg | – | – |
| O=C(O)CCCC(NC(=O)c1cccc(Cl)c1)C(=O)N1CCC2(CCCC2)CC1 (stereo not shown) [Compound D5] | 32 mg/kg | 1.5 µM | – |
| O=C(O)CC[C@@H](NC(=O)c1cccc(Cl)c1)C(=O)N1CCC2(CC1)OCCO2 [Compound C27] | 81 mg/kg | – | – |
| O=C(O)CCC(NC(=O)c1cccc(Cl)c1)C(=O)N1CCC2(CC1)OCC(CO)O2 (stereo not shown) [Compound D2] | 85 mg/kg | – | IC50 [2]: > 10 µM; Anti-CCK activity IC50 [3]: 108 µg/mL |
| O=C(O)CC[C@@H](NC(=O)c1cc(Cl)cc(Cl)c1)C(=O)N1CCC2(CCCC2)C1 [Compound C7] | 60 mg/kg | – | – |
| O=C(O)CC[C@@H](NC(=O)c1cc(Cl)cc(Cl)c1)C(=O)NC1CCC2(CCCCC2)CC1 [Compound C23] | 40 mg/kg | 0.32 µM | – |
| O=C(O)CC[C@@H](NC(=O)c1cccc(Cl)c1)C(=O)N1CCC2(CCCCC2)C1 [Compound C4] | 49 mg/kg | – | – |
| O=C(O)CC[C@@H](NC(=O)c1ccco1)C(=O)N1CCC2(CCCC2)CC1 [Compound C24] | > 75 mg/kg | – | – |
| O=C(O)CC[C@@H](NC(=O)c1ccc(Cl)c(Cl)c1)C(=O)N1CCC2(CCCCC2)CC1 [Compound C20] | 64 mg/kg | – | Anti-CCK activity IC50 [3]: 0.5 µg/mL; Antagonism of contracturant activity of CCK-8 relative to lorglumide (in words) [3]: at concentrations no greater than those shown by lorglumide |
| O=C(O)CC[C@@H](NC(=O)c1cnc2ccccc2c1)C(=O)N1CCC2(CCCCC2)CC1 [Compound C21] | > 75 mg/kg | 0.51 µM | Anti-CCK activity IC50 [3]: 0.2 µg/mL; Antagonism of contracturant activity of CCK-8 relative to lorglumide (in words) [3]: at concentrations no greater than those shown by lorglumide |
| O=C(O)CC[C@@H](NC(=O)c1cc(Cl)cc(Cl)c1)C(=O)N1CCC2(CC1)OCCO2 [Compound C28] | 70 mg/kg | – | – |
| O=C(O)CC[C@@H](NC(=O)c1cc(Cl)cc(Cl)c1)C(=O)NCCC12CC3CC(CC(C3)C1)C2 [Compound C31] | 20 mg/kg | – | Antigastrin activity (in words) [1]: particularly favourable |
| O=C(O)CCC(NC(=O)c1cccc(Cl)c1)C(=O)N1CCC2(CC1)SCCS2 (racemic) [Compound D1, (R,S) (±)-4-[(3-chlorobenzoyl)amino]-5-(1.4-dithia-8-azaspiro[4.5]decan-8-yl)-5-oxopentanoic acid] | > 75 mg/kg | 2.6 µM | – |
| O=C(O)CC[C@H](NC(=O)c1cccc(Cl)c1)C(=O)N1CCC2(CCCC2)CC1 [Compound C32] | > 100 mg/kg | 26 µM | Antigastrin activity (in words) [1]: completely inactive up to a dose of 100 mg/Kg |
| O=C(O)CC[C@@H](NC(=O)c1cnc2ccccc2c1)C(=O)N1CCC2(CCCC2)CC1 [Compound C19] | 68 mg/kg | – | Anti-CCK activity IC50 [3]: 1.5 µg/mL; Antagonism of contracturant activity of CCK-8 relative to lorglumide (in words) [3]: at concentrations no greater than those shown by lorglumide |
| O=C(O)CC[C@@H](NC(=O)c1cccnc1Cl)C(=O)N1CCC2(CCCC2)CC1 [Compound C25] | 69 mg/kg | – | – |
